This assay addresses Human factor D (Homo sapiens (Human), UniProt P00746). The assay can be described thus: Human Factor D Assay. The format is biochemical. Conditions: Human factor D 80 nM, substrate Z-L-Lys-SBzl and DTNB 100 μM each, pH 7.5. How it is done: Example 14. Human Factor D Assay
Human factor D (purified from human serum, Complement Technology, Inc.) at 80 nM final concentration is incubated with test compound at various concentrations for 5 minutes at room temperature in 50 mM Tris, 1M NaCl, pH 7.5. A synthetic substrate Z-L-Lys-SBzl and DTNB (Ellman's reagent) are added to final concentrations of 100 μM each. The increase in color is recorded at OD405 nm in a microplate in kinetic mode over 30 minutes with 30 second time points in a spectrofluorimeter. IC50 values are calculated by non-linear regression from the percentage of inhibition of complement factor D activity as a function of test compound concentration.

The values that follow come from patent publication US9695205B2, “Amide compounds for treatment of complement mediated disorders” (Achillion Pharmaceuticals, Inc., priority 2014, dated 2017).

A value given as a limit tells only on which side of the number the result lay.

Chain of Human factor D (P00746 26-253): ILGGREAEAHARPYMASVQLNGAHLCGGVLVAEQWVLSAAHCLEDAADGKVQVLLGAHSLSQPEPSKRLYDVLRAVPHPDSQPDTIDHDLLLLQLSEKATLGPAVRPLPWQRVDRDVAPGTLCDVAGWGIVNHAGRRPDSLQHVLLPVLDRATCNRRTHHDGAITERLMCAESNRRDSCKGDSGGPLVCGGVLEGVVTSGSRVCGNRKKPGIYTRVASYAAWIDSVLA

One may read the IC50 as the concentration that inhibits the measured activity by half. The low end stands for greater potency, the high end for weaker potency. As to `NC(=O)c1nn(CC(=O)N2[C@@H]3C[C@@H]3C[C@H]2C(=O)Nc2cccc(OC(F)(F)F)c2F)c2ccc(NC(=O)N3CCCC(F)(F)C3)cc12` [Compound 27, 5-(3,3-difluoropiperidine-1-carboxamido)-1-(2-((1R,3S,5R)-3-(2-fluoro-3-(trifluoromethoxy)phenylcarbamoyl)-2-azabicyclo[3.1.0]hexan-2-yl)-2-oxoethyl)-1H-indazole-3-carboxamide], the IC50 was less than 1 µM. The same measure for `NC(=O)c1nn(CC(=O)N2[C@@H]3C[C@@H]3C[C@H]2C(=O)Nc2cccc(-c3ccccc3Cl)c2F)c2ccc(NC(=O)N3CCCC(F)(F)C3)cc12` [Compound 28, 1-(2-((1R,3S,5R)-3-(2′-chloro-2-fluorobiphenyl-3-ylcarbamoyl)-2-azabicyclo[3.1.0]hexan-2-yl)-2-oxoethyl)-5-(3,3-difluoropiperidine-1-carboxamido)-1H-indazole-3-carboxamide]: less than 1 µM; for `NC(=O)c1nn(CC(=O)N2C[C@H](F)C[C@H]2C(=O)Nc2cccc(-c3ncccc3Cl)c2F)c2ccc(NC(=O)N3CCCC(F)(F)C3)cc12` [Compound 29, 1-(2-((2S,4R)-2-(3-(3-chloropyridin-2-yl)-2-fluorophenylcarbamoyl)-4-fluoropyrrolidin-1-yl)-2-oxoethyl)-5-(3,3-difluoropiperidine-1-carboxamido)-1H-indazole-3-carboxamide]: less than 1 µM.

`NC(=O)c1nn(CC(=O)N2C[C@H](F)C[C@H]2C(=O)Nc2cccc(-c3ccccc3Cl)c2F)c2ccc(NC(=O)N3CCC(F)(F)C3)cc12` [Compound 30, 1-(2-((2S,4R)-2-(2′-chloro-2-fluorobiphenyl-3-ylcarbamoyl)-4-fluoropyrrolidin-1-yl)-2-oxoethyl)-5-(3,3-difluoropyrrolidine-1-carboxamido)-1H-indazole-3-carboxamide] returned an IC50 of less than 1 µM.

`NC(=O)c1nn(CC(=O)N2C[C@H](F)C[C@H]2C(=O)Nc2cccc(-c3ccccc3Cl)c2F)c2ccc(NC(=O)N3CCC(F)(F)CC3)cc12` [Compound 31, 1-(2-((2S,4R)-2-(2′-chloro-2-fluorobiphenyl-3-ylcarbamoyl)-4-fluoropyrrolidin-1-yl)-2-oxoethyl)-5-(4,4-difluoropiperidine-1-carboxamido)-1H-indazole-3-carboxamide] displayed an IC50 of less than 1 µM. Take `NC(=O)c1nn(CC(=O)N2C[C@H](F)C[C@H]2C(=O)Nc2cccc(-c3ccccc3Cl)c2F)c2ccc(NC(=O)NCc3ncccn3)cc12` [Compound 32, 1-(2-((2S,4R)-2-(2′-chloro-2-fluorobiphenyl-3-ylcarbamoyl)-4-fluoropyrrolidin-1-yl)-2-oxoethyl)-5-(3-(pyrimidin-2-ylmethyl)ureido)-1H-indazole-3-carboxamide]: the IC50 was less than 1 µM.

Turning to `NC(=O)c1nn(CC(=O)N2C[C@H](F)C[C@H]2C(=O)Nc2cccc(Br)n2)c2ccc(NC(=O)N3CCCC(F)(F)C3)cc12` [Compound 33, 1-(2-((2S,4R)-2-(6-bromopyridin-2-ylcarbamoyl)-4-fluoropyrrolidin-1-yl)-2-oxoethyl)-5-(3,3-difluoropiperidine-1-carboxamido)-1H-indazole-3-carboxamide], the 50% inhibitory concentration (IC50) is less than 1 µM. `NC(=O)c1nn(CC(=O)N2[C@@H]3C[C@@H]3C[C@H]2C(=O)Nc2cccc(Br)n2)c2ccc(NC(=O)N3CCCC(F)(F)C3)cc12` [Compound 34, 1-(2-((1R,3S,5R)-3-(6-bromopyridin-2-ylcarbamoyl)-2-azabicyclo[3.1.0]hexan-2-yl)-2-oxoethyl)-5-(3,3-difluoropiperidine-1-carboxamido)-1H-indazole-3-carboxamide] yielded an IC50 of less than 1 µM. On to `CC(=O)c1cn(CC(=O)N2C[C@H](F)C[C@H]2C(=O)Nc2cccc(-c3ccccc3Cl)c2F)c2ccc(NC(=O)C3CCC(F)(F)C3)cc12` (stereo partly drawn) [Compound 35, (2S,4R)-1-(2-(3-acetyl-5-(3,3-difluorocyclopentanecarboxamido)-1H-indol-1-yl)acetyl)-N-(2′-chloro-2-fluorobiphenyl-3-yl)-4-fluoropyrrolidine-2-carboxamide], for which the IC50 was less than 1 µM. The value for `CC(=O)c1cn(CC(=O)N2C[C@H](F)C[C@H]2C(=O)Nc2cccc(-c3ccccc3Cl)c2F)c2ccc(NC(=O)CC(F)(F)F)cc12` [Compound 36, (2S,4R)-1-(2-(3-acetyl-5-(3,3,3-trifluoropropanamido)-1H-indol-1-yl)acetyl)-N-(2′-chloro-2-fluorobiphenyl-3-yl)-4-fluoropyrrolidine-2-carboxamide] was less than 1 µM. `CC(=O)c1cn(CC(=O)N2C[C@H](F)C[C@H]2C(=O)NCc2cccc(Cl)c2F)c2cc(NC(=O)OC(C)(C)C)ccc12` [Compound 37, tert-butyl 3-acetyl-1-(2-((2S,4R)-2-(3-chloro-2-fluorobenzylcarbamoyl)-4-fluoropyrrolidin-1-yl)-2-oxoethyl)-1H-indol-6-ylcarbamate] registered an IC50 of less than 1 µM.

`CC(=O)c1cn(CC(=O)N2C[C@H](F)C[C@H]2C(=O)NCc2cccc(Cl)c2F)c2ccc(C(=O)N3CC=C(B(O)O)CC3)cc12` [Compound 38, 1-(3-acetyl-1-(2-((2S,4R)-2-(3-chloro-2-fluorobenzylcarbamoyl)-4-fluoropyrrolidin-1-yl)-2-oxoethyl)-1H-indole-5-carbonyl)-1,2,3,6-tetrahydropyridin-4-ylboronic acid] had a half-maximal inhibitory concentration (IC50) of less than 1 µM.

`CC(=O)c1cn(CC(=O)N2C[C@H](F)C[C@H]2C(=O)NCc2cccc(Cl)c2F)c2ccc(C(=O)N3CC4CCC3C4)cc12` (stereo partly drawn) [Compound 39, (2S,4R)-1-(2-(3-acetyl-5-(2-azabicyclo[2.2.1]heptane-2-carbonyl)-1H-indol-1-yl)acetyl)-N-(3-chloro-2-fluorobenzyl)-4-fluoropyrrolidine-2-carboxamide] displayed an IC50 of less than 1 µM. With `CC(=O)c1cn(CC(=O)N2C[C@H](F)C[C@H]2C(=O)NCc2cccc(Cl)c2F)c2ccc(C(=O)N3CCCC(F)(F)C3)cc12` [Compound 40, (2S,4R)-1-(2-(3-acetyl-5-(3,3-difluoropiperidine-1-carbonyl)-1H-indol-1-yl)acetyl)-N-(3-chloro-2-fluorobenzyl)-4-fluoropyrrolidine-2-carboxamide], the IC50 is less than 1 µM. The same measure for `CC(=O)c1cn(CC(=O)N2C[C@H](F)C[C@H]2C(=O)NCc2cccc(Cl)c2F)c2ccc(C(=O)NC3CC3)cc12` [Compound 41, 3-acetyl-1-(2-((2S,4R)-2-(3-chloro-2-fluorobenzylcarbamoyl)-4-fluoropyrrolidin-1-yl)-2-oxoethyl)-N-cyclopropyl-1H-indole-5-carboxamide]: less than 1 µM.

`CC(=O)c1cn(CC(=O)N2C[C@H](F)C[C@H]2C(=O)NCc2cccc(Cl)c2F)c2cc(C(=O)N3CCC(CN)C3)ccc12` (stereo partly drawn) [Compound 42, (2S,4R)-1-(2-(3-acetyl-6-(3-(aminomethyl)pyrrolidine-1-carbonyl)-1H-indol-1-yl)acetyl)-N-(3-chloro-2-fluorobenzyl)-4-fluoropyrrolidine-2-carboxamide] displayed a 50% inhibitory concentration (IC50) of less than 1 µM.

With `CC(=O)c1cn(CC(=O)N2C[C@H](F)C[C@H]2C(=O)NCc2cccc(Cl)c2F)c2cc(C(=O)NS(C)(=O)=O)ccc12` [Compound 43, 3-acetyl-1-(2-((2S,4R)-2-(3-chloro-2-fluorobenzylcarbamoyl)-4-fluoropyrrolidin-1-yl)-2-oxoethyl)-N-(methylsulfonyl)-1H-indole-6-carboxamide], the IC50 is less than 1 µM. The value for `CC(=O)c1cn(CC(=O)N2C[C@H](F)C[C@H]2C(=O)NCc2cccc(Cl)c2F)c2cc(C(=O)N[C@H]3CCN(C(=O)OC(C)(C)C)C3)ccc12` [Compound 44, (S)-tert-butyl 3-(3-acetyl-1-(2-((2S,4R)-2-(3-chloro-2-fluorobenzylcarbamoyl)-4-fluoropyrrolidin-1-yl)-2-oxoethyl)-1H-indole-6-carboxamido) pyrrolidine-1-carboxylate] was less than 1 µM; that for `CC(=O)c1cn(CC(=O)N2C[C@H](F)C[C@H]2C(=O)NCc2cccc(Cl)c2F)c2cc(C(=O)N[C@H]3CCNC3)ccc12` [Compound 45, 3-acetyl-1-(2-((2S,4R)-2-(3-chloro-2-fluorobenzylcarbamoyl)-4-fluoropyrrolidin-1-yl)-2-oxoethyl)-N-((S)-pyrrolidin-3-yl)-1H-indole-6-carboxamide] was less than 1 µM.

The compound `CC(=O)c1cn(CC(=O)N2C[C@H](F)C[C@H]2C(=O)NCc2cccc(Cl)c2F)c2cc(C(=O)N[C@H]3CCN(C(C)=O)C3)ccc12` [Compound 46, 3-acetyl-N-((S)-1-acetylpyrrolidin-3-yl)-1-(2-((2S,4R)-2-(3-chloro-2-fluorobenzylcarbamoyl)-4-fluoropyrrolidin-1-yl)-2-oxoethyl)-1H-indole-6-carboxamide] had a concentration for half-maximal inhibition (IC50) of less than 1 µM. The same measure for `CC(=O)c1cn(CC(=O)N2C[C@H](F)C[C@H]2C(=O)NCc2cccc(Cl)c2F)c2cc(C(=O)NS(=O)(=O)C3CC3)ccc12` [Compound 48, 3-acetyl-1-(2-((2S,4R)-2-(3-chloro-2-fluorobenzylcarbamoyl)-4-fluoropyrrolidin-1-yl)-2-oxoethyl)-N-(cyclopropylsulfonyl)-1H-indole-6-carboxamide]: less than 1 µM. The same measure for `CC(=O)c1cn(CC(=O)N2C[C@H](F)C[C@H]2C(=O)NCc2cccc(Cl)c2F)c2cc(C(=O)NCC3CCNC3)ccc12` (stereo partly drawn) [Compound 49, 3-acetyl-1-(2-((2S,4R)-2-(3-chloro-2-fluorobenzylcarbamoyl)-4-fluoropyrrolidin-1-yl)-2-oxoethyl)-N-(pyrrolidin-3-ylmethyl)-1H-indole-6-carboxamide]: less than 1 µM; for `CC(=O)c1cn(CC(=O)N2C[C@H](F)C[C@H]2C(=O)NCc2cccc(Cl)c2F)c2cc(C(=O)NCC3CCN(C(=O)OC(C)(C)C)C3)ccc12` (some centres unmarked) [Compound 50]: less than 1 µM.
